Like-named read-outs stand apart in the source and are kept apart here.
Columns and labels:
[1] = tested on: Osteoblasts (Calvarial cells); experiment: Alkaline phosphatase (ALP) activity in osteoblasts (Calvarial cells); type: cell-based, mice; settings: 1 μM compound, 3 days; for activity at 1 µM: Mus musculus, 72 h, Calvarial cell, read-out: ALP activity (1 μM, % of Control) Calvarial cell
Protocol: Differentiation and activity of osteoblasts were indirectly evaluated by measuring an ALP activity having a close relationship with osteogenesis.
Osteoblasts (Calvarial cells) prepared in Experimental Example 1 and MC3T3-E1 cells (available from RIKEN Cell Bank, Japan) were collected in α-MEM supplemented with 10% FBS, followed by cell counting. The cells were dispensed into 24-well cultureware at a density of 2×10^4 cells/well. After culturing of the cells for 24 hours, the culture media were discarded and replaced with fresh media in which test compounds were diluted to a concentration of 1 μM (1 mL/well). In addition, the vehicle control group containing 0.1% DMSO was also treated. […] When the experiment was terminated, the supernatant was removed and the cells were washed three times with cold phosphate buffer at 4°. 0.2% Triton X-100 was added to the washed cells which were then subjected to three cycles of freezing at −70° and thawing at room temperature for the complete lysis of cells. The cell extracts were pooled and centrifuged to collect the cell supernatant which was used for the measurement of ALP activity and proteins. The protein concentration was measured using a BCA assay kit (manufactured by Sigma-Aldrich). For the measurement of ALP activity, p-nitrophenylphosphate was added to the cell supernatant which was then incubated at 37° for 30 minutes, and the reaction was terminated with the addition of 50 μL of 0.2N sodium hydroxide. The standard curve was plotted at the absorbance of 405 nm using p-nitrophenol as a standard material and then the absorbance of test materials thus reacted was measured to determine the production amount of p-nitrophenol.
The ALP activity was calculated by dividing the amount of p-nitrophenol produced from each test material by the protein amount and the reaction time. Therefore, the unit of ALP activity was given in terms of p-nitrophenol/μg protein/min. The results are given in Tables 28-1 and 28-2 where the ALP activity unit of each test material was given in terms of % change through the comparison between the individual test materials and the vehicle control group.

[2] = tested on: Osteoblasts (Calvarial cells); experiment: Cytotoxicity test (MTT); settings: 1 μM compound, 72 hours, in comparison with vehicle control
[3] = tested on: Osteoblasts (Calvarial cells); settings: ICR, mouse, 72 h, 1 μM

| SMILES | ALP activity (1 μM, % of Control) Calvarial cell [1] | Cell viability (%) Calvarial cell [2] | activity at 1 µM [1] | Cell viability (%) Calvarial cell [3] |
| --- | --- | --- | --- | --- |
| CC1=NCCN1c1ccc([N+](=O)[O-])c(Nc2ccc(C)cc2)n1 [Compound 6, 2-(4-methylphenylamino)-6-[(2-methyl-4,5-dihydro)imidazol-1-yl]-3-nitropyridine] | 116 % of Control | 94% | – | – |
| Cc1ccc(Nc2nc(N3CCOCC3)ccc2[N+](=O)[O-])cc1 [Compound 14, 2-(4-methylphenylamino)-6-morpholino-3-nitropyridine] | – | – | 135% | 99% |
| CC(C)Nc1ccc([N+](=O)[O-])c(Nc2ccc(C(C)(C)C)cc2)n1 [Compound 31, 2-[4-(t-butyl)phenylamino]-6-(isopropylamino)-3-nitropyridine] | – | – | 134% | 108% |
| CC1=NCCN1c1ccc([N+](=O)[O-])c(Nc2ccc(C(C)(C)C)cc2)n1 [Compound 35, 2-[4-(t-butyl)phenylamino]-6-[(2-methyl-4,5-dihydro)imidazol-1-yl]-3-nitropyridine] | 132 % of Control | 96% | – | – |
| CCN(CCO)c1ccc([N+](=O)[O-])c(Nc2ccc(C#N)cc2)n1 [Compound 51, 2-(4-cyanophenylamino)-6-[(N-ethyl-2-hydroxy)ethylamino]-3-nitropyridine] | 116 % of Control | 100% | – | – |
| CNc1ccc([N+](=O)[O-])c(Nc2ccc(N)cc2)n1 [Compound 57, 2-[4-(amino)phenylamino]-6-(methylamino)-3-nitropyridine] | – | – | 112% | 103% |
| CC(C)Nc1ccc([N+](=O)[O-])c(Nc2ccc(N)cc2)n1 [Compound 58, 2-[4-(amino)phenylamino]-6-(isopropylamino)-3-nitropyridine] | – | – | 127% | 107% |
| CC(C)(C)Nc1ccc([N+](=O)[O-])c(Nc2ccc(N)cc2)n1 [Compound 60, 2-[4-(amino)phenylamino]-6-(t-butylamino)-3-nitropyridine] | – | – | 131% | 119% |
| Nc1cccc(Nc2nc(N3CCC(N)CC3)ccc2[N+](=O)[O-])c1 [Compound 79, 2-[3-(amino)phenylamino]-6-(4-aminopiperidino)-3-nitropyridine] | – | – | 133% | 99% |
| CCN(CCO)c1ccc([N+](=O)[O-])c(Nc2ccc(N3CCOCC3)cc2)n1 [Compound 118, 2-(4-morpholinophenylamino)-6-[(N-ethyl-2-hydroxy)ethylamino]-3-nitropyridine] | 111 % of Control | 102% | – | – |
| CNc1ccc([N+](=O)[O-])c(Nc2ccc(N3CCOCC3)c(F)c2)n1 [Compound 191, 2-[(3-fluoro-4-morpholino)phenylamino]-6-(methylamino)-3-nitropyridine] | 156 % of Control | 97% | – | – |
| CC(C)Nc1ccc([N+](=O)[O-])c(Nc2ccc(N3CCOCC3)c(F)c2)n1 [Compound 192, 2-[(3-fluoro-4-morpholino)phenylamino]-6-(isopropylamino)-3-nitropyridine] | 113 % of Control | 99% | – | – |
| CNc1ccc([N+](=O)[O-])c(Nc2ccc(N3CCSCC3)c(F)c2)n1 [Compound 203, 2-[(3-fluoro-4-thiomorpholino)phenylamino]-6-(methylamino)-3-nitropyridine] | 154 % of Control | 97% | – | – |
| CC(C)CNc1ccc([N+](=O)[O-])c(Nc2ccc(N3CCSCC3)c(F)c2)n1 [Compound 205, 2-[(3-fluoro-4-thiomorpholino)phenylamino]-6-(isobutylamino)-3-nitropyridine] | 132 % of Control | 109% | – | – |
| O=[N+]([O-])c1ccc(N2CCC(O)CC2)nc1Nc1ccc(N2CCSCC2)c(F)c1 [Compound 206, 2-[(3-fluoro-4-thiomorpholino)phenylamino]-6-(4-hydroxypiperidino)-3-nitropyridine] | 124 % of Control | 102% | – | – |
| CC(C)Nc1ccc([N+](=O)[O-])c(Nc2ccc(N3CCCCC3)c(F)c2)n1 [Compound 224, 2-[(3-fluoro-4-piperidino)phenylamino]-6-(isopropylamino)-3-nitropyridine] | 125 % of Control | 101% | – | – |
| CC(C)Nc1ccc([N+](=O)[O-])c(Nc2ccc(N3CCC(O)CC3)c(F)c2)n1 [Compound 237, 2-{[3-fluoro-4-(4-hydroxypiperidino)]phenylamino}-6-(isopropylamino)-3-nitropyridine] | 117 % of Control | 99% | – | – |
| O=[N+]([O-])c1ccc(N2CCC(O)CC2)nc1Nc1ccc(N2CCC(O)CC2)c(F)c1 [Compound 239, 2-{[3-fluoro-4-(4-hydroxypiperidino)]phenylamino}-6-(4-hydroxypiperidino)-3-nitropyridine] | 130 % of Control | 98% | – | – |
| CC1=NCCN1c1ccc([N+](=O)[O-])c(Nc2ccc(N3CCC(N)CC3)c(F)c2)n1 [Compound 252, 2-{[3-fluoro-4-(4-aminopiperidino)]phenylamino}-6-[(2-methyl-4,5-dihydro)imidazol-1-yl]-3-nitropyridine] | 112 % of Control | 103% | – | – |
| NC1CCN(c2ccc(Nc3nc(N4CCNCC4)ccc3[N+](=O)[O-])cc2F)CC1 [Compound 253, 2-{[3-fluoro-4-(4-aminopiperidino)]phenylamino}-6-(piperazin-1-yl)-3-nitropyridine] | 115 % of Control | 104% | – | – |
| NC1CCN(c2ccc(Nc3nc(NCc4cccnc4)ccc3[N+](=O)[O-])cc2F)CC1 [Compound 257, 2-{[3-fluoro-4-(4-aminopiperidino)]phenylamino}-6-[(3-pyridyl)methylamino]-3-nitropyridine] | 122 % of Control | 101% | – | – |
| NC1CCN(c2ccc(Nc3nc(NCc4ccncc4)ccc3[N+](=O)[O-])cc2F)CC1 [Compound 258, 2-{[3-fluoro-4-(4-aminopiperidino)]phenylamino}-6-[(4-pyridyl)methylamino]-3-nitropyridine] | 115 % of Control | 101% | – | – |
